A short description of data set [1]: Antioxidant screening experiments: stability of E5564 to free-radical oxidation. To be noted: for Comments (effectiveness of antioxidant in stabilizing E5564 to oxidation): 18-22 hours.
From the text: We tested several antioxidant compounds to determine whether they impact the stability of E5564 to free-radical oxidation.
Data set [2] can be described thus: Relative stability of E5564 in aqueous solution by formation of major oxidative degradants (FIG. 1). Type of data set: physicochemical. To be noted: inclusion of BHA, 7 μg/vial. The procedure:
FIG. 1 is a graph showing the relative stability of E5564 in aqueous solution prepared with different drug substance lots, as measured by the formation of major oxidative degradants.
The following is a detailed description of an example of a method for formulating E5564. As is discussed further below, key features of this method include the following. A small amount (7 μg/vial) of butylated hydroxyanisole (BHA) was added to the formulation to prevent oxidation of the E5564 in aqueous solution. […] In addition, the sodium content of the solution was lowered by replacing sodium phosphate salts with phosphoric acid for pH adjustment, to enhance micelle size stability during the freeze-drying manufacturing step, and a high shelf temperature was used in the freeze-drying step of the process.

Data set [3] in a line: Stabilization of E5564 micelle size during lyophilization (freeze-drying). Conditions: for Micelle Size (hydrodynamic diameter): after lyophilization; for Stabilizing the micelle size of E5564 during freeze-drying: disaccharide in formulation.
Setting [4] is: time 0-4 hours, E5564 solution with the labelled antioxidant.
The mark [5] stands for this setting: time 18-22 hours, E5564 solution with the labelled antioxidant (row 'none' = E5564 without antioxidant).
Setting [6] is: time 0 hours, E5564 solution with the labelled antioxidant (row 'none' = E5564 without antioxidant).

Each structure is given as a SMILES string.

Regarding `O[C@H](CS)[C@H](O)CS` (racemic) [dithiothreitol], in data set [1], the “Comments (effectiveness of antioxidant in stabilizing E5564 to oxidation)” value (from here on “Comments”) was “effective”.

Regarding `O=C1O[C@H]([C@@H](O)CO)C(O)=C1O` [Ascorbic Acid], the “Comments” value in data set [1] is given as “Not useful, sta-”. Moreover, the results for the “E5564 conc. (% initial)” value in data set [1] (setting [4]) and in data set [1] (setting [5]) were 100 % initial and 97.4 % initial, respectively.

As for `CCCCCCCCCCCCCCCC(=O)OC[C@H](O)[C@H]1OC(=O)C(O)=C1O` [Ascorbyl Palmitate], the “Comments” value in data set [1] is recorded as “Not useful, sta-”. For the same molecule, the “E5564 conc. (% initial)” value in data set [1] (setting [4]) amounted to 100 % initial; in data set [1] (setting [5]), 92.4 % initial.

In the case of `COc1ccc(O)c(C(C)(C)C)c1` [BHA, butylated hydroxyanisole], the “Comments” value in data set [1] is reported as “Effective”. In addition, the entries for the “E5564 conc. (% initial)” value in data set [1] (setting [6]) and in data set [1] (setting [5]) were 100 % initial and 102.3 % initial, respectively. Also, the “Major Oxidative Degradant” value in data set [1] (setting [6]) is reported as 0.68; in data set [1] (setting [5]) it was 0.27. Also, in data set [2], the “Stability of E5564 drug product in solution” value was “increases its stability”.

With `Cc1cc(C(C)(C)C)c(O)c(C(C)(C)C)c1` [BHT, butylated hydroxytoluene], the “Comments” value in data set [1] is listed as “Effective”. The “E5564 conc. (% initial)” value in data set [1] (setting [6]) is 100 % initial; in data set [1] (setting [5]) it was 102.8 % initial.

As for `CCCCCC/C=C\CCCCCCCCCC(=O)N[C@H]1[C@H](OC[C@H]2O[C@H](OP(=O)([O-])[O-])[C@H](NC(=O)CC(=O)CCCCCCCCCCC)[C@@H](OCCCCCCCCCC)[C@@H]2O)O[C@H](COC)[C@@H](OP(=O)([O-])[O-])[C@@H]1OCC[C@@H](CCCCCCC)OC.[Na+].[Na+].[Na+].[Na+]` [E5564], the “Comments” value in data set [1] was “Rapid degradation”. The “E5564 conc. (% initial)” value in data set [1] (setting [6]) was 100 % initial; in data set [1] (setting [5]), 91.3 % initial. The “Major Oxidative Degradant” value in data set [1] (setting [6]) came out at 1.12; in data set [1] (setting [5]), 6.02. Further, the “Stability of micelle size” value in data set [3] (2 mM Na+ in formulation (excluding Na+ from the drug)) is listed as “good stability”. In data set [3] (10 mM Na+ in formulation (excluding sodium from the drug)), the “Maintaining the desired micelle size during freeze-drying” value was “works for some, but not all, lots”. Moreover, the “Micelle Size (hydrodynamic diameter)” value in data set [3] (1% (w/v) lactose in formulation) worked out at 16 nm; in data set [3] (2% (w/v) lactose in formulation), 13 nm; in data set [3] (5% (w/v) lactose in formulation), 8 nm; in data set [3] (10% (w/v) lactose in formulation), 7 nm.

For `OCC(O)CS` (centres unmarked) [Monothioglycerol, monothioglycerol], in data set [1], the “Comments” value is reported as “Effective”. In addition, the “E5564 conc. (% initial)” value in data set [1] (setting [4]) is listed as 100 % initial; in data set [1] (setting [5]) it was 101.3 % initial.

For the molecule `CCCOC(=O)c1cc(O)c(O)c(O)c1` [Propyl Gallate, propyl gallate], in data set [1], the “Comments” value was “Effective”. The “E5564 conc. (% initial)” value in data set [1] (setting [6]) is recorded as 100 % initial; in data set [1] (setting [5]), 100.6 % initial.

For the molecule `O=S([O-])[O-].[Na+].[Na+]` [Sodium Sulfite, sodium sulfite], the “Comments” value in data set [1] is “Effective”. Further, in data set [1] (setting [4]), the “E5564 conc. (% initial)” value is 100 % initial and the “Major Oxidative Degradant” value is on record as 0.13. Also, in data set [1] (setting [5]), the “E5564 conc. (% initial)” value was determined as 101.8 % initial and the “Major Oxidative Degradant” value is given as 0.25.

As for `O=S([O-])([O-])=S.[Na+].[Na+]` [Sodium Thiosulfate, sodium thiosulfate], the “Comments” value in data set [1] is recorded as “Effective”. Besides, in data set [1] (setting [4]), the “E5564 conc. (% initial)” value was found to be 100 % initial and the “Major Oxidative Degradant” value is 0.09. For the same molecule, in data set [1] (setting [5]), the “E5564 conc. (% initial)” value was 100.2 % initial and the “Major Oxidative Degradant” value was determined as 0.19.

For `CC(=O)Oc1c(C)c(C)c2c(c1C)CCC(C)(CCC[C@H](C)CCC[C@H](C)CCCC(C)C)O2` (some centres unmarked) [Vitamin E Acetate], the “E5564 conc. (% initial)” value in data set [1] (setting [4]) came to 100 % initial; in data set [1] (setting [5]), 94.2 % initial.

On to `OC[C@H]1O[C@@H](O[C@H]2[C@H](O)[C@@H](O)C(O)O[C@@H]2CO)[C@H](O)[C@@H](O)[C@H]1O` (some centres unmarked) [lactose], for which the “Stabilizing the micelle size of E5564 during freeze-drying” value in data set [3] was “effective”.

As for `OC[C@H]1O[C@@](CO)(O[C@H]2O[C@H](CO)[C@@H](O)[C@H](O)[C@H]2O)[C@@H](O)[C@@H]1O` [sucrose], the “Stabilizing the micelle size of E5564 during freeze-drying” value in data set [3] is “effective”.

The record behind these values is patent US20080095786A9, “Compositions And Methods For Preventing And Treating Endotoxin-Related Diseases And Conditions” (priority 2003, published 2008).
